Biological target: T1, N-terminally GST-tagged DLK (catalytic domain amino acid 1-520) (Homo sapiens, UniProt Q12852)
T1 construct: N-terminally GST-tagged DLK (catalytic domain amino acid 1-520); purchased Carna Bioscience
T1 sequence (Q12852 1-520): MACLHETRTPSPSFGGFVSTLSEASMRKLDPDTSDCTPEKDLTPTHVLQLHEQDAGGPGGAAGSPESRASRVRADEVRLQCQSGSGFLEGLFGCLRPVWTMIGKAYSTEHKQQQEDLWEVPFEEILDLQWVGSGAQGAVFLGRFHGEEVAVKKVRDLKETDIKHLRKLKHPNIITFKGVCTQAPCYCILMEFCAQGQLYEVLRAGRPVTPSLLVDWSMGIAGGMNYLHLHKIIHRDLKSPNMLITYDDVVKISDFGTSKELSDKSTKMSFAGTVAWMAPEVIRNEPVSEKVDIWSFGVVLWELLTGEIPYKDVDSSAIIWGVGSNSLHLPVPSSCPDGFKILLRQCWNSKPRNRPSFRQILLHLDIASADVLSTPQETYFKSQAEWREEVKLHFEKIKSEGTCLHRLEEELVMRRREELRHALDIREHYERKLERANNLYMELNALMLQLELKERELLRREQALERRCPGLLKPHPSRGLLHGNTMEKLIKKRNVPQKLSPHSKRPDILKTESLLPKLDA
Test: DLK TR-FRET inhibition assay
Assay type: biochemical
Details: 5 nM GST-DLK, 40 nM HIS-MKK4 K131M substrate, 30 μM ATP, 60 minutes at ambient temperature
Summary of the method: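 5 nM GST-DLK (aa 1-520), 40 nM HIS-MKK4 K131M and 30 μM ATP reacted 60 min at ambient temperature in HEPES pH 7.5 buffer with 10 mM MgCl2, compound 1:3 serially diluted from 20 uM. TR-FRET detection of phospho-MKK4 used Eu-cryptate anti-phospho-MKK4 plus D2 anti-HIS, read after 3 h (665/615 nm).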

Compared with CC(C)n1nc(-c2cnc(N)c(C(F)(F)F)c2)cc1[C@@H]1[C@@H]2C[C@@H](N3CC(C#N)C3)C[C@@H]21 [compound 124, 1-((1R,3s,5S,6s)-6-(3-(6-amino-5-(trifluoromethyl)pyridin-3-yl)-1-isopropyl-1H-pyrazol-5-yl)bicyclo[3.1.0]hexan-3-yl) azetidine-3-carbonitrile], CC(C)n1nc(-c2cnc(N)c(C(F)(F)F)c2)cc1[C@H]1[C@@H]2C[C@@H](N3CCN(C)C[C@@H]3C)C[C@@H]21 [compound 239, 5-(5-((1R,3s,5S,6S)-3-((S)-2,4-dimethylpiperazin-1-yl)bicyclo [3.1.0]hexan-6-yl)-1-isopropyl-1H-pyrazol-3-yl)-3-(trifluoromethyl) pyridin-2-amine] is lower in Ki: greater than 1600 nM for the first, 1.7 nM for the second. The second binds more tightly here.

First: CC(C)n1nc(-c2cnc(N)c(OC(F)F)c2)cc1[C@H]1[C@@H]2C[C@@H](F)C[C@@H]21 [compound 217, 3-(difluoromethoxy)-5-(5-((1R,3s,5S,6r)-3-fluorobicyclo[3.1.0]hexan-6-yl)-1-isopropyl-1H-pyrazol-3-yl)pyridin-2-amine]
Second: CC(C)n1nc(-c2cnc(N)c(OC(F)F)c2)cc1[C@H]1[C@@H]2CC(C)(O)C[C@@H]21 (stereo partly drawn) [compound 105, (1R,5S,6r)-6-(3-(6-amino-5-(difluoro-methoxy)pyridin-3-yl)-1-isopropyl-1H-pyrazol-5-yl)-3-methyl-bicyclo[3.1.0]hexan-3-ol]
The Ki of the first is 4.4-fold lower: 4.2 nM for the first, 18.3 nM for the second.

First: CC(C)n1nc(-c2cnc(N)c(OC(F)F)c2)cc1[C@H]1[C@@H]2C[C@H](N3C4COCC3C4)C[C@@H]21 [compound 153, 5-(5-((1R,3r,5S,6r)-3-(3-oxa-6-azabicyclo[3.1.1]heptan-6-yl)bicyclo[3.1.0]hexan-6-yl)-1-isopropyl-1H-pyrazol-3-yl)-3-(difluoro-methoxy)pyridin-2-amine]
Second: CC(C)n1nc(-c2cnc(N)c(OC(F)F)c2)cc1[C@H]1[C@@H]2C[C@@H](N3CCOC[C@H]3C)C[C@@H]21 [compound 82, 3-(difluoromethoxy)-5-(1-isopropyl-5-((1R,3s,5S,6R)-3-((R)-3-methylmorpholino)bicyclo[3.1.0]hexan-6-yl)-1H-pyrazol-3-yl) pyridin-2-amine]
The Ki of the first is 1.6-fold lower: 0.9 nM for the first, 1.43 nM for the second.

CC(C)n1nc(-c2cnc(N)c(OC(F)F)c2)cc1[C@H]1[C@@H]2C[C@H]3CN(C)C[C@H]3[C@@H]21 (racemic) [compound 163, (±)-3-(difluoromethoxy)-5-(1-isopropyl-5-((3aS,3bR,4S,4aR,5aR)-2-methyloctahydro-1H-cyclopropa[3,4]cyclopenta[1,2-c]pyrrol-4-yl)-1H-pyrazol-3-yl) pyridin-2-amine] and CC(C)n1nc(-c2cnc(N)c(OC(F)F)c2)cc1[C@H]1[C@@H]2C[C@H](N3CC4(CN(C)CCO4)C3)C[C@@H]21 [compound 228, 3-(difluoromethoxy)-5-(1-isopropyl-5-((1R,3r,5S,6r)-3-(8-methyl-5-oxa-2,8-diazaspiro[3.5]nonan-2-yl)bicyclo[3.1.0]hexan-6-yl)-1H-pyrazol-3-yl)pyridin-2-amine] are the same in Ki: 2.8 nM for the first, 2.8 nM for the second.

Compared with CC(C)n1nc(-c2cnc(N)c(OC(F)(F)F)c2)cc1[C@H]1[C@@H]2C[C@H](N(C)CC3COC3)C[C@@H]21 [compound 19, 5-(1-isopropyl-5-((1R,3r,5S,6r)-3-(methyl(oxetan-3-ylmethyl)amino)bicyclo[3.1.0]hexan-6-yl)-1H-pyrazol-3-yl)-3-(trifluoro-methoxy)pyridin-2-amine], CC(C)n1nc(-c2cnc(N)c(OC(F)(F)F)c2)cc1[C@H]1[C@@H]2C[C@H](N3CCO[C@@H](C)C3)C[C@@H]21 [compound 109, 5-(1-isopropyl-5-((1R,3r,5S,6S)-3-((S)-2-methylmorpholino)bicyclo[3.1.0]hexan-6-yl)-1H-pyrazol-3-yl)-3-(trifluoromethoxy) pyridin-2-amine] is 1.9-fold lower in Ki: 2.97 nM for the first, 1.59 nM for the second. The second binds more tightly here.

Compared with CC(C)n1nc(-c2cnc(N)c(C(F)(F)F)c2)cc1[C@H]1[C@@H]2C[C@H](N3CC4(CCCO4)C3)C[C@@H]21 [compound 227, 5-(5-((1R,3r,5S,6r)-3-(5-oxa-2-azaspiro[3.4]octan-2-yl)bicyclo [3.1.0]hexan-6-yl)-1-isopropyl-1H-pyrazol-3-yl)-3-(trifluoro-methyl)pyridin-2-amine], CC(C)n1nc(-c2cnc(N)c(C(F)(F)F)c2)cc1[C@H]1[C@@H]2C[C@@H](N3CCN4CCCC4C3)C[C@@H]21 (single isomer, unassigned) [compound 261] is 3.8-fold lower in Ki: 4.5 nM for the first, 1.2 nM for the second.

CCN1CCN([C@@H]2C[C@@H]3[C@H](C2)[C@H]3c2cc(-c3cnc(N)c(OC(F)(F)F)c3)nn2C(C)C)CC1 [compound 15, 5-(5-((1R,3s,5S,6r)-3-(4-ethylpiperazin-1-yl)bicyclo[3.1.0]hexan-6-yl)-1-isopropyl-1H-pyrazol-3-yl)-3-(trifluoromethoxy) pyridin-2-amine] and Nc1ncc(-c2cc([C@H]3[C@@H]4C[C@H](N5CCOCC5)C[C@@H]43)n(CC3CCC3)n2)cc1OC(F)F [compound 127, 5-(1-(cyclobutylmethyl)-5-((1R, 3r,5S,6r)-3-morpholinobicyclo [3.1.0]hexan-6-yl)-1H-pyrazol-3-yl)-3-(difluoromethoxy)pyridin-2-amine] are within 1.5-fold of each other in Ki: 3.58 nM for the first, 3.55 nM for the second.
